Test results: US11504369B2, “Cytosine-based TET enzyme inhibitors” (President and Trustees of Bates College, priority 2019, dated 2022)
“Also recorded” adds a separate entry of the source. Values belong to the compound of their own block, whether it stands above or below them.

What was measured:
[1] = system: DNMT3a; experiment: Inhibitory assay for DNMT3a; type: biochemical; details: concentration of 500 μM
[2] = system: HT22 cells; experiment: Whole genome bisulfite sequencing in HT22 cells; type: cell-based, mouse; details: 10 μM, 24 hours
Protocol: Whole genome bisulfite sequencing in HT22 cells was performed. […] Generally, the genome was broken into windows each containing 25 CpGs, and an analysis was performed to determine differentially methylated regions. […] Additionally, the differentially methylated regions (DMRs) were highly associated with DMRs detected for those Tet gene deficient cells/tissue.
HT-22 cells were provided by David Schubert at the Salk Institute (San Diego, Calif.). Cells were cultured in Dulbecco's Modified Eagle Medium (Life Technologies, Carlsbad, Calif.) supplemented with 10% FBS, 100 U/ml penicillin, and 100 μg/ml streptomycin (Life Technologies, Carlsbad, Calif.) at 37° C. and 5% CO2. […]
Cells were lysed and gDNA was extracted (Qiagen, DNeasy), bisulfite converted (Accel-NGS Methyl-Seq DNA Library, Swift), and sequenced (Hudson Alpha Discovery) on the Illumina platform (HiSeq_X10, paired end, 150 bp, 500 million reads per sample). Reads were QC'd by FastQC (v0.11.5), filtered by quality (average quality score <20), Illumina adapters removed, and sequencing primers trimmed using Trim_Galore! […] The filtered and trimmed reads were then mapped to the mouse genome (mm10), deduplicated, and CpG methylation levels extracted using Bismark (v0.19.0). Altered CpG methylation was determined by dividing the mouse genome into ˜850,000 windows, each containing 25 CpG sites. […]

[3] = biological target: T1, TET1 (Homo sapiens, UniProt Q8NFU7); experiment: Chemiluminescence ELISA of TET1-mediated oxidation of methylated DNA; type: biochemical; details: for TET1 inhibition (in words): compound at 100 μM in ELISA
T1 construct: purchased Bioscience 50651
T1 sequence (Q8NFU7 whole entry): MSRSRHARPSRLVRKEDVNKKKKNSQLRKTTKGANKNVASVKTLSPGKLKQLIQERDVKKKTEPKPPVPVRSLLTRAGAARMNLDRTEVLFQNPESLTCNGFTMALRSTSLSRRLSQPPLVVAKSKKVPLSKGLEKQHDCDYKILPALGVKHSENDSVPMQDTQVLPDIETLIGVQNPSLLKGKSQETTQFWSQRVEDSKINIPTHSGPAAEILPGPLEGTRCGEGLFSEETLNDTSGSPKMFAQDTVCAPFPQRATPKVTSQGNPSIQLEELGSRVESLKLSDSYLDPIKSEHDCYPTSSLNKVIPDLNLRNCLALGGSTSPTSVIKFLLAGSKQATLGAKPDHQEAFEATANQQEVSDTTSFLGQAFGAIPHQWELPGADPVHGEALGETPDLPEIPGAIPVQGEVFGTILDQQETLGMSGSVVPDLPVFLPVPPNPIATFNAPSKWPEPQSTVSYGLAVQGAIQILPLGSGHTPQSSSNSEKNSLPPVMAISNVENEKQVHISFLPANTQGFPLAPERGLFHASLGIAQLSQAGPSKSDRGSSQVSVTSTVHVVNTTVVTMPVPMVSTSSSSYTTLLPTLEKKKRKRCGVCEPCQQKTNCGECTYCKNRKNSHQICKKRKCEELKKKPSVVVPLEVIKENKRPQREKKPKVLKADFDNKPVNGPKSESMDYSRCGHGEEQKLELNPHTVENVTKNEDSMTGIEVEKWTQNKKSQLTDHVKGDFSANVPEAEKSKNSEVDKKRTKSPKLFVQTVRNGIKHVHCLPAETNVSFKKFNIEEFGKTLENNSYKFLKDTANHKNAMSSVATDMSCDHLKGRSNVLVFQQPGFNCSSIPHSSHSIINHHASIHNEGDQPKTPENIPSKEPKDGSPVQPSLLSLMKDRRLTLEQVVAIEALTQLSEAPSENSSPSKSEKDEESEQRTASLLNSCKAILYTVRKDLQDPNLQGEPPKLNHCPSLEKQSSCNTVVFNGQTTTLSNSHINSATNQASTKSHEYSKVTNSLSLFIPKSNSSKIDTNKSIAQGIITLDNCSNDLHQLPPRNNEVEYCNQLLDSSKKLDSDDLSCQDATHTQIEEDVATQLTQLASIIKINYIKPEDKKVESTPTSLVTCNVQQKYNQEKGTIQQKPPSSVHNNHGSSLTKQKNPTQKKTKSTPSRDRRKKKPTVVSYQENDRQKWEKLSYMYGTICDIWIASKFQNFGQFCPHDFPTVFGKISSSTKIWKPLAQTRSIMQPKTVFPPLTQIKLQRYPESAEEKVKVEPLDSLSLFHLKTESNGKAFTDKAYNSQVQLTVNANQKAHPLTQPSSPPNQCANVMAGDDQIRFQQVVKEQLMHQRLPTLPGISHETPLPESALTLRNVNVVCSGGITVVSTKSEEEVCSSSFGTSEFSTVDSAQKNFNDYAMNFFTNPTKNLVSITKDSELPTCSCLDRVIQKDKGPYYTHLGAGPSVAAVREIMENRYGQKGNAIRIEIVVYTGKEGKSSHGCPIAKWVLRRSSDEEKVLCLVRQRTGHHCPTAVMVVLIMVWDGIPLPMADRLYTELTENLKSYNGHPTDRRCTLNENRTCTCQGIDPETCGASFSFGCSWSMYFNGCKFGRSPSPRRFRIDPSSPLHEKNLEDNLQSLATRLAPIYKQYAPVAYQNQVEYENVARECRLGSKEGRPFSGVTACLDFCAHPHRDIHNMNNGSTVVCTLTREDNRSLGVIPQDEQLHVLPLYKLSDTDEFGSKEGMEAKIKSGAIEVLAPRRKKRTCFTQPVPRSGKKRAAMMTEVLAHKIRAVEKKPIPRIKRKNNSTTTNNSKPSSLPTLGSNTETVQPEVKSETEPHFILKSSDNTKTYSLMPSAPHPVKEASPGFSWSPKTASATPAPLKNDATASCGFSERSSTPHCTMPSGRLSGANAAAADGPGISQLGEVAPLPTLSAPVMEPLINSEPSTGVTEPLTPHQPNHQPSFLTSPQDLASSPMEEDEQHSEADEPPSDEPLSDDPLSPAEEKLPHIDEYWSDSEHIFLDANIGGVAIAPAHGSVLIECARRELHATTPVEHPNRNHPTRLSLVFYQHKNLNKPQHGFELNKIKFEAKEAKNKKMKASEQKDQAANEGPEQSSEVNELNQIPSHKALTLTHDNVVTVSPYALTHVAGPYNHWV
Protocol: To determine whether cytosine analogs inhibited TET-mediated oxidation of methylated DNA, the amount of hydroxymethylcytosine in reactions containing TET enzyme alone or TET enzyme and a cytosine analog were determined using chemiluminescence ELISA assays.
Procedure adapted from manual (Bioscience; TET1: 50651, TET2: 50652). Prepare TBST buffer (1× TBS, pH 8.0, containing 0.05% Tween-20). Dilute 4.0× TET Assay Buffer (TAB) to 1.5× TAB and 1.0× TAB evenly with diluted water. Thaw and dilute (5.0 ng/μl for TET1 and 10 ng/μl for TET2) TET enzyme from kit with 1.0× TAB. Dilute primary antibody 100-fold with blocking buffer. Diluted secondary antibody 1000-fold with blocking buffer. Dilute DMSO inhibitor solutions with 1.0× TAB to wanted concentration (ensure solutions are 5% DMSO). To 96-well plate provided, add 200 μl TBST buffer to each well and incubate at room temperature for 15 min. Remove TBST buffer and add 20 μl 1.5× TAB, 10 μl inhibitor solution, 20 μl diluted TET to each well. For controls, add 10 μl 5% DMSO solution and 20 μl 1.0× TAB. Incubate at room temperature for 2 h. Remove reaction solution and wash 3× with TBST buffer (200, 200, and 100 μl). Add 100 μl […] diluted primary antibody and shake at room temperature for 1 h. Remove diluted primary antibody and wash 3× with TBST buffer (200, 200, and 100 μl). Add 100 μl blocking buffer to each well and shake at room temperature for 10 min. Remove blocking buffer. Add 100 μl diluted secondary antibody. Shake at room temperature for 30 min. Remove diluted secondary antibody and wash 3× with TBST buffer (200, 200, and 100 μl). Add 100 μl blocking buffer to each well and shake at room temperature for 10 min. Remove blocking buffer. Combine horseradish peroxidase (HRP) substrate A and HRP substrate B at 1:1 ratio. Add 100 μl of HRP solution to each well. Immediately, read chemiluminescence (BioTek Synergy 2 plate reader).

[4] = biological target: T2, TET2 (Homo sapiens, UniProt Q6N021); experiment: Chemiluminescence ELISA of TET2-mediated oxidation of methylated DNA; type: biochemical; details: dose-response
T2 construct: purchased Bioscience 50652
Protocol: Procedure adapted from manual (Bioscience; TET1: 50651, TET2: 50652). Prepare TBST buffer (1× TBS, pH 8.0, containing 0.05% Tween-20). […] Dilute primary antibody 100-fold with blocking buffer. Diluted secondary antibody 1000-fold with blocking buffer. […] To 96-well plate provided, add 200 μl TBST buffer to each well and incubate at room temperature for 15 min. Remove TBST buffer and add 20 μl 1.5× TAB, 10 μl inhibitor solution, 20 μl diluted TET to each well. For controls, add 10 μl 5% DMSO solution and 20 μl 1.0× TAB. Incubate at room temperature for 2 h. Remove reaction solution and wash 3× with TBST buffer (200, 200, and 100 μl). Add 100 μl blocking buffer 53 μl diluted primary antibody and shake at room temperature for 1 h. Remove diluted primary antibody and wash 3× with TBST buffer (200, 200, and 100 μl). Add 100 μl blocking buffer to each well and shake at room temperature for 10 min. Remove blocking buffer. Add 100 μl diluted secondary antibody. Shake at room temperature for 30 min. […] Immediately, read chemiluminescence (BioTek Synergy 2 plate reader).

TET1 inhibition (in words) [3]: significantly enhanced activity
TET1 inhibition (in words) ([3]; listed as 3-biphenyl): significantly increased TET1 inhibition
IC50 ([3]; dose-response, N=3): 33 µM
Compound: Nc1nc(=O)n(-c2cccc(-c3ccccc3)c2)cc1Cl [Bobcat339, 1-([1,1′-biphenyl]-3-yl)-4-amino-5-chloropyrimidin-2(1H)-one]
inhibition of DNMT3a [1]: failing to show substantial inhibition; also recorded: but not DNMT3a
differentially methylated regions (windows of 25 CpGs) [2]: A thousand such regions were observed, most of which are hypermethylated
global CpG methylation [2]: significant change in global CpG methylation

TET1 inhibition (in words) [3]: significantly reduced TET1 inhibition
Compound: Nc1nc(=O)n(-c2ccc(-c3ccccc3)cc2)cc1Cl [Bobcat219, 1-([1,1′-biphenyl]-4-yl)-4-amino-5-chloropyrimidin-2(1H)-one]

TET1 inhibition (in words) [3]: significantly reduced TET1 inhibition
Compound: Nc1nc(=O)n(-c2ccccc2-c2ccccc2)cc1Cl [Bobcat337, 1-([1,1′-biphenyl]-2-yl)-4-amino-5-chloropyrimidin-2(1H)-one]

IC50 [4]: 98 µM
Compound: Nc1nc(=O)n(-c2ccccc2)cc1Cl [Bobcat216, 4-amino-5-chloro-1-phenylpyrimidin-2(1H)-one]
